Source: US20250197354A1, “SOLID STATE FORMS OF LX9211 AND SALTS THEREOF” (TEVA PHARMACEUTICALS INTERNATIONAL GMBH, priority 2022, published 2025)
Values after ≈ are worked out from the molar mass of the structure shown.

Assays:
Assay type in all cases: physicochemical
[1] = Compression at a pressure of 1 ton, XRPD analysis; conditions: hydraulic press, 2 minutes
Experimental: (§1) Sample after being powdered in a mortar and pestle is applied directly on a silicon plate holder. The X-ray powder diffraction pattern was measured with Philips X'Pert PRO X-ray powder diffractometer, equipped with Cu irradiation source=1.54184 Å (Ångström), X'Celerator (2.022° 2θ) detector. Scanning parameters: angle range: 3-40 deg., step size 0.0167, time per step 37 s, continuous scan.
A sample of LX9211 dihydrogen phosphate form SI was subjected to a pressure of 1 ton (Perkin Elmer Hydraulic Press, set to 1 tons).
A sample of LX9211 dihydrogen phosphate form S3 was subjected to a pressure of 1 ton (Perkin Elmer Hydraulic Press, set to 1 tons).
A sample of LX9211 camsylate form K1 was subjected to a pressure of 1 ton (Perkin Elmer Hydraulic Press, set to 1 tons).
A sample of LX9211 hemihydrogen phosphate form S5 was subjected to a pressure of 1 ton (Perkin Elmer Hydraulic Press, set to 1 tons).

[2] = DVS water uptake; conditions: at least up to 90% RH
[3] = Strong grinding and solvent drop grinding, XRPD analysis
Experimental: as §1
(§2) Samples of LX9211 dihydrogen phosphate form S1 were subjected to strong grinding and to solvent drop grinding in acetone, ethanol (96%), and 2-propanol). Grinding was carried out on the samples alone, or in the presence of the solvent. In these experiments, about 20 mg of the sample is placed in a mortar and ground with a pestle for 2 minutes. The solvent, when used, as added to the crystalline material before grinding, in a volume of 10 microliters. XRPD analysis performed on each of the samples after the grinding experiment, confirmed no change in the starting material (Table 4):
as §2, with “S3” for “S1”, “6):” for “4):”
as §2, with “camsylate” for “dihydrogen phosphate”, “K1” for “S1”, “8):” for “4):”
as §2, with “hemihydrogen” for “dihydrogen”, “S5” for “S1”, “10): […]” for “4):”

[4] = Solubility in water and pH 4.5 buffer, HPLC; conditions: 24 hours, 37±0.2° C.; for Solubility (mg/mL) pH 4.5: pH 4.5 buffer (USP)
Experimental: The solubilities of LX9211 dihydrogen phosphate forms S1 and S3 and LX9211 dihydrogen phosphate and urea, and LX9211 free base form A were determined in water and pH 4.5 buffer as follows:
About 80 mg of samples of the starting materials were weighed into 15 ml PP centrifuge tubes. 8 ml of appropriate buffer solution (pH 4.5 according to USP 35-NF 30 Buffer Solutions) or water was added. Tubes were stoppered and shaken at 160 rpm for 24 hours at 37±0.2° C. in an incubator shaker (Innova 4080, New Brunswick Scientific). Suspensions were filtered through 0.45 μm […] syringe filter (CHROMAFIL PTFE-45/25, Macherey-Nagel). Filtrates were sampled and concentration of the starting material was determined by HPLC according to corresponding standard.

[5] = 2-propanol 10 microliters, solvent drop grinding for 2 minutes
[6] = Acetone 10 microliters, solvent drop grinding for 2 minutes
[7] = Ethanol (96%) 10 microliters, solvent drop grinding for 2 minutes
[8] = No solvent, strong grinding in mortar for 2 minutes

| Structure (SMILES) | XRPD analysis after pressure [1] | hygroscopicity (DVS) [2] | water uptake (DVS) [2] | XRPD analysis results after grinding [3, 5] | XRPD analysis results after grinding [3, 6] | XRPD analysis results after grinding [3, 7] | XRPD analysis results after grinding [3, 8] | Solubility (mg/mL) pH 4.5 [4] [mg/mL] | Solubility (mg/mL) water [4] [mg/mL] |
| --- | --- | --- | --- | --- | --- | --- | --- | --- | --- |
| CC(C)C[C@](C)(N)COc1ccc(-c2ccnc(C(F)F)c2)nc1C(F)F [LX9211 camsylate form K1] | no polymorphic conversion | non-hygroscopic | less than 0.1% | No polymorphic conversion | No polymorphic conversion | No polymorphic conversion | No polymorphic conversion | – | – |
| CC(C)C[C@](C)(N)COc1ccc(-c2ccnc(C(F)F)c2)nc1C(F)F [LX9211 dihydrogen phosphate and urea form U1] | – | – | – | – | – | – | – | 16.4 | 24.4 |
| CC(C)C[C@](C)(N)COc1ccc(-c2ccnc(C(F)F)c2)nc1C(F)F [LX9211 dihydrogen phosphate form S1] | no polymorphic conversion | – | – | No polymorphic conversion | No polymorphic conversion | No polymorphic conversion | No polymorphic conversion | 8.1 | 25.0 |
| CC(C)C[C@](C)(N)COc1ccc(-c2ccnc(C(F)F)c2)nc1C(F)F [LX9211 dihydrogen phosphate form S3] | no polymorphic conversion | – | – | No polymorphic conversion | No polymorphic conversion | No polymorphic conversion | No polymorphic conversion | 13.8 | 25.0 |
| CC(C)C[C@](C)(N)COc1ccc(-c2ccnc(C(F)F)c2)nc1C(F)F [LX9211 free base form A, (S)-1-((2′,6-bis(difluoromethyl)-[2,4′-bipyridin]-5-yl)oxy)-2,4-dimethylpentan-2-amine] | – | – | – | – | – | – | – | 9.7 | 0.1 (≈ 259 µM) |
